Experimental findings from patent publication US7833939B2, “Herbicide compositions” (Kumiai Chemical Industry Co., Ltd., priority 2002, dated 2010) are described below.

As usually defined, the melting point is the temperature, or range, at which the solid turns liquid.

The subject of data set [1] is green foxtail (Setaria viridis). Put plainly: Herbicidal effect by upland field soil treatment (Application Example 1): green foxtail. It counts as in vivo. The note with it: 30th day from treatment. The procedure: (§1) Test for Herbicidal Effect by Upland Field Soil Treatment
(§2) An upland field soil was filled in a plastic pot of 11 cm each of length, width and depth. Seeds of corn, green foxtail (Setaria viridis) and common lambsquarters (Chenopodium album L.) were sowed, followed by covering with the same soil. The wettable powder produced in accordance with Formulation 1 was weighed so as to provide active ingredients in a predetermined amount, and was diluted with water and sprayed uniformly on the soil surface using a small sprayer, in an amount of 100 liters per […]. Then, growing was made in a greenhouse, and the herbicidal effect of each wettable powder was examined at the 30th day from the treatment in accordance with the standard shown in Table 15.

The subject of a further data set is corn. Put plainly: Herbicidal effect by upland field soil treatment (Application Example 1): phytotoxicity to corn. The note with it: 30th day from treatment. It counts as in vivo. The method, then:
as §1, §2

For data set [2], the system named is common lambsquarters (Chenopodium album L.). Put plainly: Herbicidal effect by upland field soil treatment (Application Example 1): common lambsquarters. It counts as in vivo. The note with it: 30th day from treatment. The procedure: as §1, §2
Setting [3] is: 32 g a.i./ha, soil surface spray of wettable powder, index of Table 15.
The mark [4] stands for this setting: 32 g a.i./ha, upland field soil treatment.
[5] abbreviates: 16 g a.i./ha, upland field soil treatment.
[6] abbreviates: 16 g a.i./ha, soil surface spray of wettable powder, index of Table 15.
[7] abbreviates: 500 g a.i./ha, soil surface spray of wettable powder, index of Table 15.
The mark [8] stands for this setting: 500 g a.i./ha, upland field soil treatment.

Take `CC1(C)CC(SCc2c(C(F)(F)F)nn(-c3ccccc3)c2Cl)=NO1`: the melting point was 89 to 90 °C.
Still for that read-out and setting: the value for `CC1(C)CC(SCc2c(C(F)(F)F)nn(C(C)(C)C)c2Cl)=NO1` was 79 to 81 °C; that for `CC1(C)CC(SCc2c(C(F)(F)F)n[nH]c2Cl)=NO1` was 120 to 122 °C.
Molecule `CC1(C)CC(SCc2c(C(F)(F)F)nn(C(F)F)c2Cl)=NO1` displayed a melting point of 41 to 42 °C.
For the molecule `CC1(C)CC(SCc2c(Cl)nn(C(F)F)c2C(F)(F)F)=NO1`, the melting point lay within 89 to 90 °C.
Molecule `CC1(C)CC(S(=O)(=O)Cc2c(C(F)(F)F)nn3c2OCCC3)=NO1` had a melting point of 151 to 152 °C.
The molecule `CC1(C)CC(S(=O)(=O)Cc2cnccc2C(F)(F)F)=NO1` returned a melting point of 77 to 80 °C.
Take `CON=C(C)c1c(C)sc(C)c1CS(=O)(=O)C1=NOC(C)(C)C1` [Compound 2-0001, 5,5-dimethyl-3-[2,5-dimethyl-4-(1-methoxyiminoethyl)-thiophen-3-ylmethylsulfonyl]-2-isoxazoline]: the melting point lay in the range of 95 to 96 °C. Moreover, the “Herbicidal effect Green foxtail (Sataria viridis)” value (from here on “Herbicidal effect Green foxtail”) in data set [1] (setting [3]) is 2 (Herbicidal effect or phytotoxicity of from 20 to 29%). Besides, the “Herbicidal effect Corn” value in the data set on corn (setting [3]) was 0 (Herbicidal effect or phytotoxicity of from 0 to 9%). Further, in data set [2] (setting [3]), the “Herbicidal effect Common lambsquarter (Chenopodium album L.)” value (from here on “Herbicidal effect Common lambsquarter”) is recorded as 1 (Herbicidal effect or phytotoxicity of from 10 to 19%).
Take `CC1(C)CC(S(=O)(=O)Cc2c(C(F)(F)F)nn(-c3ccccc3)c2Cl)=NO1` [Compound 3-0002, 3-(5-chloro-1-phenyl-3-trifluoromethyl-1H-pyrazol-4-ylmethylsulfonyl)-5,5-dimethyl-2-isoxazoline]: the melting point lay within 132 to 133 °C. Further, in data set [1] (setting [4]), the “Herbicidal effect Green foxtail” value was 5 (Herbicidal effect or phytotoxicity of from 50 to 59%). The “Herbicidal effect Corn” value in the data set on corn (setting [4]) is on record as 0 (Herbicidal effect or phytotoxicity of from 0 to 9%). In addition, the “Herbicidal effect Common lambsquarter” value in data set [2] (setting [4]) is 2 (Herbicidal effect or phytotoxicity of from 20 to 29%).
`CCS(=O)(=O)c1c(CS(=O)(=O)C2=NOC(C)(C)C2)c(C(F)(F)F)nn1-c1ccccc1` [Compound 3-0004, 5,5-dimethyl-3-(5-ethylsulfonyl-1-phenyl-3-trifluoromethyl-1H-pyrazol-4-ylmethylsulfonyl)-2-isoxazoline] registered a melting point of 158 to 160 °C. The “Herbicidal effect Green foxtail” value in data set [1] (setting [4]) is given as 3 (Herbicidal effect or phytotoxicity of from 30 to 39%). The “Herbicidal effect Corn” value in the data set on corn (setting [4]) was 0 (Herbicidal effect or phytotoxicity of from 0 to 9%). Further, the “Herbicidal effect Common lambsquarter” value in data set [2] (setting [4]) is on record as 2 (Herbicidal effect or phytotoxicity of from 20 to 29%).
The corresponding values for `CN(C)c1c(CS(=O)(=O)C2=NOC(C)(C)C2)c(C(F)(F)F)nn1-c1ccccc1` [Compound 3-0005, 5,5-dimethyl-3-(5-dimethylamino-1-phenyl-3-trifluoromethyl-1H-pyrazol-4-ylmethylsulfonyl)-2-isoxazoline] are 150 to 151 °C, 2 (Herbicidal effect or phytotoxicity of from 20 to 29%), 0 (Herbicidal effect or phytotoxicity of from 0 to 9%) and 2 (Herbicidal effect or phytotoxicity of from 20 to 29%).
As for `CC1(C)CC(S(=O)(=O)Cc2c(C(F)(F)F)nn(C(F)F)c2Cl)=NO1` [Compound 3-0010, 3-(5-chloro-1-difluoromethyl-3-trifluoromethyl-1H-pyrazol-4-ylmethylsulfonyl)-5,5-dimethyl-2-isoxazoline], the melting point is 126 to 127 °C. Moreover, in data set [1] (setting [5]), the “Herbicidal effect Green foxtail” value was 2 (Herbicidal effect or phytotoxicity of from 20 to 29%). Also, the “Herbicidal effect Corn” value with corn (setting [5]) is recorded as 0 (Herbicidal effect or phytotoxicity of from 0 to 9%). Besides, the “Herbicidal effect Common lambsquarter” value in data set [2] (setting [5]) is listed as 2 (Herbicidal effect or phytotoxicity of from 20 to 29%).
Turning to `CC1(C)CC(S(=O)(=O)Cc2c(Cl)nn(C(F)F)c2C(F)(F)F)=NO1` [Compound 3-0011, 3-(3-chloro-1-difluoromethyl-5-trifluoromethyl-1H-pyrazol-4-ylmethylsulfonyl)-5,5-dimethyl-2-isoxazoline], the melting point lay within 136 to 137 °C. Further, the “Herbicidal effect Green foxtail” value in data set [1] (setting [5]) is on record as 3 (Herbicidal effect or phytotoxicity of from 30 to 39%). In addition, the “Herbicidal effect Corn” value with corn (setting [5]) is 0 (Herbicidal effect or phytotoxicity of from 0 to 9%). In addition, the “Herbicidal effect Common lambsquarter” value in data set [2] (setting [5]) was 2 (Herbicidal effect or phytotoxicity of from 20 to 29%).
As for `CCOc1nn(C)c(C(F)(F)F)c1CS(=O)(=O)C1=NOC(C)(C)C1` [Compound 3-0012, 5,5-dimethyl-3-(3-ethoxy-1-methyl-5-trifluoromethyl-1H-pyrazol-4-ylmethylsulfonyl)-2-isoxazoline], the melting point was 124 to 125 °C. In data set [1] (setting [5]), the “Herbicidal effect Green foxtail” value is listed as 2 (Herbicidal effect or phytotoxicity of from 20 to 29%). The “Herbicidal effect Corn” value in the data set with corn (setting [5]) is reported as 0 (Herbicidal effect or phytotoxicity of from 0 to 9%). Further, in data set [2] (setting [5]), the “Herbicidal effect Common lambsquarter” value is reported as 1 (Herbicidal effect or phytotoxicity of from 10 to 19%).
`COc1c(CS(=O)(=O)C2=NOC(C)(C)C2)c(C(F)(F)F)nn1C` [Compound 3-0013, 5,5-dimethyl-3-(5-methoxy-1-methyl-3-trifluoromethyl-1H-pyrazol-4-ylmethylsulfonyl)-2-isoxazoline]: the melting point lay in the range of 113 to 114 °C. For the same molecule, in data set [1] (setting [5]), the “Herbicidal effect Green foxtail” value is 2 (Herbicidal effect or phytotoxicity of from 20 to 29%). Besides, the “Herbicidal effect Corn” value with corn (setting [5]) was 0 (Herbicidal effect or phytotoxicity of from 0 to 9%). In addition, the “Herbicidal effect Common lambsquarter” value in data set [2] (setting [5]) is reported as 2 (Herbicidal effect or phytotoxicity of from 20 to 29%).
In the case of `Cn1nc(C(F)(F)F)c(CS(=O)(=O)C2=NOC(C)(C)C2)c1Oc1ccccc1Cl` [Compound 3-0014, 3-(5-(2-chlorophenoxy)-1-methyl-3-trifluoromethyl-1H-pyrazol-4-ylmethylsulfonyl)-5,5-dimethyl-2-isoxazoline], the melting point fell in the range of 67 to 70 °C. The “Herbicidal effect Green foxtail” value in data set [1] (setting [4]) is on record as 2 (Herbicidal effect or phytotoxicity of from 20 to 29%). Further, in the data set on corn (setting [4]), the “Herbicidal effect Corn” value is recorded as 0 (Herbicidal effect or phytotoxicity of from 0 to 9%). Further, the “Herbicidal effect Common lambsquarter” value in data set [2] (setting [4]) was 2 (Herbicidal effect or phytotoxicity of from 20 to 29%).
With `Cn1nc(C(F)(F)F)c(CS(=O)(=O)C2=NOC(C)(C)C2)c1OC1CCCC1` [Compound 3-0015, 3-(5-cyclopentyloxy-1-methyl-3-trifluoromethyl-1H-pyrazol-4-ylmethylsulfonyl)-5,5-dimethyl-2-isoxazoline], the melting point was 113 to 114 °C. Further, in data set [1] (setting [4]), the “Herbicidal effect Green foxtail” value is given as 3 (Herbicidal effect or phytotoxicity of from 30 to 39%). The “Herbicidal effect Corn” value in the data set with corn (setting [4]) is reported as 0 (Herbicidal effect or phytotoxicity of from 0 to 9%). For the same molecule, the “Herbicidal effect Common lambsquarter” value in data set [2] (setting [4]) is 3 (Herbicidal effect or phytotoxicity of from 30 to 39%).
Turning to `Cn1nc(C(F)(F)F)c(CS(=O)(=O)C2=NOC(C)(C)C2)c1OC(F)F` [Compound 3-0188, 3-(5-difluoromethoxy-1-methyl-3-trifluoromethyl-1H-pyrazol-4-ylmethanesulfonyl)-5,5-dimethyl-2-isoxazoline], the “Herbicidal effect Green foxtail” value in data set [1] (setting [6]) is 3 (Herbicidal effect or phytotoxicity of from 30 to 39%). The “Herbicidal effect Common lambsquarter” value in data set [2] (setting [6]) was 2 (Herbicidal effect or phytotoxicity of from 20 to 29%).
With `Cc1nsc(Cl)c1CS(=O)(=O)C1=NOC(C)(C)C1` [Compound 4-0002, [(5-chloro-3-methyl-isothiazol-4-yl)-methylsulfonyl]-5,5-dimethyl-2-isoxazoline], in data set [1] (setting [3]), the “Herbicidal effect Green foxtail” value is 3 (Herbicidal effect or phytotoxicity of from 30 to 39%). Moreover, in the data set on corn (setting [3]), the “Herbicidal effect Corn” value is reported as 0 (Herbicidal effect or phytotoxicity of from 0 to 9%). The “Herbicidal effect Common lambsquarter” value in data set [2] (setting [3]) is recorded as 2 (Herbicidal effect or phytotoxicity of from 20 to 29%).
Turning to `COc1ncnc(C(F)(F)F)c1CS(=O)(=O)C1=NOC(C)(C)C1` [Compound 8-0001, 5,5-dimethyl-[(4-methoxy-6-trifluoromethylpyrimidin-5-yl)-methylsulfonyl]-2-isoxazoline], the “Herbicidal effect Green foxtail” value in data set [1] (setting [6]) is listed as 2 (Herbicidal effect or phytotoxicity of from 20 to 29%). Also, the “Herbicidal effect Corn” value with corn (setting [6]) was 0 (Herbicidal effect or phytotoxicity of from 0 to 9%). The “Herbicidal effect Common lambsquarter” value in data set [2] (setting [6]) was 1 (Herbicidal effect or phytotoxicity of from 10 to 19%).
For `CCNc1nc(Cl)nc(NC(C)(C)C#N)n1` [Cyanazine, cyanazine, reference compound], the “Herbicidal effect Green foxtail” value in data set [1] (setting [7]) and in data set [1] (setting [8]) was 1 (Herbicidal effect or phytotoxicity of from 10 to 19%) throughout. Also, the “Herbicidal effect Corn” value in the data set with corn (setting [7]) and in the data set on corn (setting [8]) was 0 (Herbicidal effect or phytotoxicity of from 0 to 9%) each time. For the same molecule, the “Herbicidal effect Common lambsquarter” value in data set [2] (setting [7]) and in data set [2] (setting [8]) was 2 (Herbicidal effect or phytotoxicity of from 20 to 29%) throughout.
